Values of other authors, collected in patent US8637073B2 (priority 2003, dated 2014).

Settings: maintenance of opioid-dependent pregnant women; Eder et al. 2001

CCC(=O)C(CC(C)N(C)C)(c1ccccc1)c1ccccc1 (stereo not shown) [methadone]
neonates in which neonatal abstinence syndrome (NAS) is observed: 60-80%
